Results from patent publication US8377932B2, “Preparation of 1-(substituted benzyl)-5-trifluoromethyl-2(1H)pyridone compounds and salts thereof and their applications” (Central South University, priority 2009, dated 2013).

How the values were obtained:
NIH3T3 fibroblasts = assay: Inhibition test of compounds on NIH3T3 fibroblasts (MTT method); format: cell-based; conditions: Mus musculus, relative IC50 obtained from multiple and IC50 of fluorofenidone on a certain plate
Experimental: Inhibition Test of Compounds on NIH3T3 fibroblasts
An MTT method is used and comprises steps of: culturing cells in DMEM culture medium including 5% calf serum and preparing the cells into cell suspension of 3×10^4/ml; inoculating in 96-well plate according to 100 μl/well; transferring new culture medium including compounds with different concentration, fluorofenidone and 1% calf serum after cells are adhered, wherein three repeated wells are provided for each concentration; respectively adding 100 μl of MTT solution in each well after 48 hours and 72 hours of administrating (the culture medium is prepared into 5 mg/ml and kept in dark after filtering), sucking out MTT after 4 hours; adding 150 μl of DMSO which is the dissolving liquid of MTT; after 10 min and MTT is completely dissolved, measuring OD value by ELISA reader; calculating IC50 values of fluorofenidone and measured compounds according to inhibition ratio; calculating multiple of activities of measured compounds and fluorofenidone according to IC50 values of fluorofenidone and measured compounds; and obtaining relative IC50 value of measured compounds according to multiple and IC50 value of fluorofenidone on a certain plate.

[1] = system: rat unilateral ureteral obstruction renal fibrosis model; assay: Treatment effect in a rat unilateral ureteral obstruction renal fibrosis model (HE and Masson staining); format: in vivo
Experimental: Observation of Treatment Effect of Compound 13 in a Rat Unilateral Ureteral Obstruction Renal Fibrosis Model
Nine male SD rats of 188-213 g, coming from Hunan Slac Laboratory Animals Co., Ltd., are illuminated for 12 hours every day; feed is provided by Shanghai Slac Laboratory Animals Co., Ltd.; and drinking water is provided by Department of Laboratory Animal Science of Central South University.
(1) Randomization: nine rats are divided into three groups at random, namely a normal group (n=3); a model group (n=3) and a treatment group (n=3) treated by compound 13 of 15 mg/kg; three rats are in a hutch; and the experimental animals are adaptively fed for two days. […]
HE stained slices of renal tissues are successively observed in fives fields of view of renal tubulointerstitium on upper left side, upper right side, lower left side, lower right side and middle portion by a low power lens and are evaluated according to eight indexes of renal interstitium lesion: renal tubular epithelial cell vacuolar degeneration, renal tubular ectasia, renal tubular atrophy, red cell cast, protein cast, interstitial edema, interstitial fibrosis and interstitial inflammatory cell infiltration; an average value is calculated as the index of renal tubulointerstitial lesion of the sample; and the evaluation standard is based on the reference of Radford M G Jr, Donadio J V Jr, Bergstralh E J, et al. Predicting renal outcome in IgA nephropathy. […]
Masson stained slices of renal tissues are observed in 20 fields of vision for each sample at random under 400× light microscope; percent of blue-stained collagens in the fields of vision is calculated; an average value is determined after semi-quantitative evaluation: no positive staining, 0; <25%, 1; 25-50%, 2; 50-75%, 3; >75%, 4; and the evaluation standard is based on references. […]

SMILES	IC50 (NIH3T3 fibroblasts; 48 hours after administration) [µM]	IC50 (NIH3T3 fibroblasts; 72 hours after administration) [µM]	Score (X ± S), renal interstitium collagens of left kidneys, MASSON staining ([1]; SD rats, UUO, 15 mg/kg intragastric once per day for 12 days, n=3, model group 2.45 ± 0.38, normal group 0.25 ± 0.00, p < 0.01 vs model)	Score (X ± S), index of renal tubulointerstitial lesions of obstruction kidneys, HE staining ([1]; SD rats, UUO, 15 mg/kg intragastric once per day for 12 days, n=3, model group 9.00 ± 1.00, normal group 0.33 ± 0.12, p < 0.01 vs model)	Treatment effect on renal fibrosis (conclusion) ([1]; rat UUO model, 15 mg/kg)
COc1ccc(Cn2cc(C(F)(F)F)ccc2=O)cc1 [Compound 19, 1-(4-methoxybenzyl)-5-(trifluoromethyl)pyridin-2(1H)-one]	301	384			
O=c1ccc(C(F)(F)F)cn1Cc1ccccc1F [Compound 20, 1-(2-fluorobenzyl)-5-(trifluoromethyl)pyridin-2(1H)-one]	273	393			
Cc1ccc(=O)n(-c2cccc(F)c2)c1 [Fluorofenidone, reference compound]	4430	3520			
O=c1ccc(C(F)(F)F)cn1Cc1ccc(NCCCN2CCCCC2)cc1 [Compound 4, 1-(4-(((3-piperidin-1-yl)propyl)amino)benzyl)-5-(trifluoromethyl)pyridin-2(1H)-one]	957	144			
Nc1ccccc1Cn1cc(C(F)(F)F)ccc1=O [Compound 17, 1-(2-aminobenzyl)-5-(trifluoromethyl)pyridin-2(1H)-one]	1810	1270			
O=c1ccc(C(F)(F)F)cn1Cc1ccc(NCCN2CCOCC2)cc1 [Compound 8, 1-(4-((2-morpholinylethyl)amino)benzyl)-5-(trifluoromethyl)pyridin-2(1H)-one]	367	229			
Nc1ccc(Cn2cc(C(F)(F)F)ccc2=O)cc1 [Compound 2, 1-(4-amino-benzyl)-5-(trifluoromethyl)pyridin-2(1H)-one]	1390	1510			
O=c1ccc(C(F)(F)F)cn1Cc1ccc(NCCCN2CCOCC2)cc1 [Compound 3, 1-(4-((3-morpholinylpropyl)amino)benzyl)-5-(trifluoromethyl)pyridin-2(1H)-one]	424	229			
CC(=O)Nc1ccc(Cn2cc(C(F)(F)F)ccc2=O)cc1 [Compound 13, 1-(4-acetamide-benzyl)-5-(trifluoromethyl)pyridin-2(1H)-one]	128	68	1.52 ± 0.16^⋆⋆**	7.00 ± 0.35^⋆⋆**	can effectively treat renal fibrosis
O=c1ccc(C(F)(F)F)cn1Cc1ccc(NCCO)cc1 [Compound 6, 1-(4-((2-hydroxyethyl)amino)benzyl)-5-(trifluoromethyl)pyridin-2(1H)-one]	1010	638			
O=c1ccc(C(F)(F)F)cn1Cc1ccc(NCCN2CCN(CCO)CC2)cc1 [Compound 11, 1-(4-((2-(4-(2-hydroxyethyl)piperazin-1-yl)ethyl)amino)benzyl)-5-(trifluoromethyl)pyridin-2(1H)-one]	526	131			
O=c1ccc(C(F)(F)F)cn1Cc1ccccc1NCCN1CCOCC1 [Compound 25, 1-(2-(2-morpholinoethylamino)benzyl)-5-(trifluoromethyl)pyridin-2(1H)-one]	368	264			
O=c1ccc(C(F)(F)F)cn1Cc1ccccc1NCCN1CCNCC1 [Compound 22, 1-(2-(2-(piperazin-1-yl)ethylamino)benzyl)-5-(trifluoromethyl)pyridin-2(1H)-one]	168	291			
O=c1ccc(C(F)(F)F)cn1Cc1ccc(NCCN2CCCCC2)cc1 [Compound 7, 1-(4-((2-(piperidyl-1-yl)ethyl)amino)benzyl)-5-(trifluoromethyl)pyridin-2(1H)-one]	4180	340			
O=c1ccc(C(F)(F)F)cn1Cc1cccc(Cl)c1 [Compound 18, 1-(3-chlorobenzyl)-5-(trifluoromethyl)pyridin-2(1H)-one]	1460	1350			
CN1CCN(CCNc2ccc(Cn3cc(C(F)(F)F)ccc3=O)cc2)CC1 [Compound 9, 1-(4-((2-(4-methyl-piperazin-1-yl)ethyl)amino)benzyl)-5-(trifluoromethyl)pyridin-2(1H)-one]	181	120			
O=c1ccc(C(F)(F)F)cn1Cc1c(Cl)cccc1Cl [Compound 14, 1-(2,6-dichlorobenzyl)-5-(trifluoromethyl)pyridin-2(1H)-one]	346	182			
CN1CCN(CCCNc2ccc(Cn3cc(C(F)(F)F)ccc3=O)cc2)CC1 [Compound 5, 1-(4-((3-(4-methyl-piperazin-1-yl)propyl)amino)benzyl)-5-(trifluoromethyl)pyridin-2(1H)-one]	141	98			
O=c1ccc(C(F)(F)F)cn1Cc1ccccc1NCCO [Compound 21, 1-(2-(2-hydroxyethylamino)benzyl)-5-(trifluoromethyl)pyridin-2(1H)-one]	664	587			
O=c1ccc(C(F)(F)F)cn1Cc1ccc(F)cc1 [Compound 15, 1-(4-fluorobenzyl)-5-(trifluoromethyl)pyridin-2(1H)-one]	1080	1090			
O=c1ccc(C(F)(F)F)cn1Cc1ccc([N+](=O)[O-])cc1 [Compound 1, 1-(4-nitrobenzyl)-5-(trifluoromethyl)pyridin-2(1H)-one]	552	470			
O=c1ccc(C(F)(F)F)cn1Cc1ccccc1 [Structure IV, reference compound]	1160	729			
O=c1ccc(C(F)(F)F)cn1Cc1ccccc1[N+](=O)[O-] [Compound 16, 1-(2-nitrobenzyl)-5-(trifluoromethyl)pyridin-2(1H)-one]	1040	1030			
